Measurements from patent publication US20220056037A1 (SPV THERAPEUTICS INC., priority 2018, published 2022).
Where two headings read alike, the source gives them in different places.

What was measured:
CDK6-CYCLIND3 = biological target: T1, CDK6-CYCLIND3 (Homo sapiens, UniProt Q00534); assay: Inhibition assay, microfluidic LabChip (Nanosyn); format: biochemical; settings: ATP 300 μM
T1 construct: purchased Carna
Experimental: (§1) The reaction was terminated by the addition of EDTA. The plates were analyzed using a Caliper LabChip 3000.
(§2) Additional inhibition assays were performed as described above.

CDK4-CYCLIND1 = biological target: T2, CDK4-CYCLIND1 (Homo sapiens, UniProt P11802); assay: Inhibition assay, microfluidic LabChip (Nanosyn); format: biochemical; settings: Table 2; ATP 200 μM; read-out: CDK4 IC50
T2 construct: purchased Invitrogen
Experimental: as §1, §2

T1 sequence (Q00534 whole entry): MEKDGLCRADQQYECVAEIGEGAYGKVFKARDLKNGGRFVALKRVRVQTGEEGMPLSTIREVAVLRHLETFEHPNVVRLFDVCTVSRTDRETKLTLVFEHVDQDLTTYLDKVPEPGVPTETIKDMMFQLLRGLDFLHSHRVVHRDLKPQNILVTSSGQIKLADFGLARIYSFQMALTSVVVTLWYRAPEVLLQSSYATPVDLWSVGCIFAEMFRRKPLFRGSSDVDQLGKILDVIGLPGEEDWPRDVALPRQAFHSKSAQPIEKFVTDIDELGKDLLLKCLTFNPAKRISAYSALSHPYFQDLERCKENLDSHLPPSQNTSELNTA
T1 sequence (P30281 whole entry partner): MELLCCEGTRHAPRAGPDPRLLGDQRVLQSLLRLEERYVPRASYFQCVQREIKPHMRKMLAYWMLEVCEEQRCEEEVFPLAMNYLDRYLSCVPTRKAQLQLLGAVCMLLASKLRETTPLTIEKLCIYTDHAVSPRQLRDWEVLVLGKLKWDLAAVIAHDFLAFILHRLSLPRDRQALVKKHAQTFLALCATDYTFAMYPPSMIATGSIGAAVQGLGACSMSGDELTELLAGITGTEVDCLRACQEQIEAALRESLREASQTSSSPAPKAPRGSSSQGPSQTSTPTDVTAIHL
T2 sequence (P11802 whole entry): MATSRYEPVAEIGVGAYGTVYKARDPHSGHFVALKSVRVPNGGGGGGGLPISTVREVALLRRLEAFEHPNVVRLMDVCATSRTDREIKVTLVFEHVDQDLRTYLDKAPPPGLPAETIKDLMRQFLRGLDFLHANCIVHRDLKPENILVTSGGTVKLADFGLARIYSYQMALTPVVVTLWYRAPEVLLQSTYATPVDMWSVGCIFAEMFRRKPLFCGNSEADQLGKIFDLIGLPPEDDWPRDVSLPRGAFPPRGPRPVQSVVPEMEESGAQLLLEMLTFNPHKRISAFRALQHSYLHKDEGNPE
T2 sequence (P24385 whole entry partner): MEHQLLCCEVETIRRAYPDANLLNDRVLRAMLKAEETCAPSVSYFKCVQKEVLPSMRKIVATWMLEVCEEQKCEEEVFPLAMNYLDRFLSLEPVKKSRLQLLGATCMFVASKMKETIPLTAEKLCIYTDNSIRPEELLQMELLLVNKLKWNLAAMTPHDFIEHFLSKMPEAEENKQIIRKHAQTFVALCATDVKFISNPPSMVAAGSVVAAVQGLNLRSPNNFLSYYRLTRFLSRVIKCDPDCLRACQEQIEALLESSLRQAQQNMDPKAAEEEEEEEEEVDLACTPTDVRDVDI

| IC50 (CDK6-CYCLIND3; Table 2, read-out: CDK6 IC50) [nM] | IC50 (CDK4-CYCLIND1) [nM] | Structure (SMILES) | IC50 (CDK6-CYCLIND3; CDK6 IC50, Table 2) [nM] |
| --- | --- | --- | --- |
| 119 | 39.3 | CN(C)C(=O)c1c(F)c2cnc(Nc3ccc(OCCN4CCCC4)nc3)nc2n1C1CCCC1 [Compound A26, 7-cyclopentyl-5-fluoro-N,N-dimethyl-2-((6-(2-(pyrrolidin-1-yl)ethoxy)pyridin-3-yl)amino)-7H-pyrrolo[2,3-d]pyrimidine-6-carboxamide] |  |
| 31.7 | 10.7 | CN1CCN(c2ccc(Nc3ncc4cc(C(=O)N(C)C)n(C56CC(C5)C6)c4n3)cc2F)CC1 [Compound A30, 7-(bicyclo[1.1.1]pentan-1-yl)-2-((3-fluoro-4-(4-methylpiperazin-1-yl)phenyl)amino)-N,N-dimethyl-7H-pyrrolo[2,3-d]pyrimidine-6-carboxamide] |  |
| 23.5 | 15.4 | CN1CCN(c2ccc(Nc3ncc4cc(C(=O)N(C)C)n(C56CC(C5)C6)c4n3)nc2)CC1 [Compound A38, 7-(bicyclo[1.1.1]pentan-1-yl)-N,N-dimethyl-2-((5-(4-methylpiperazin-1-yl)pyridin-2-yl)amino)-7H-pyrrolo[2,3-d]pyrimidine-6-carboxamide] |  |
| 1430 | 457 | CN(C)C(=O)c1cc2cnc(Nc3cc(C(F)(F)F)c(N4CCNCC4)cn3)nc2n1C1CCCC1 [Compound A24, 7-cyclopentyl-N,N-dimethyl-2-((5-(piperazin-1-yl)-4-(trifluoromethyl)pyridin-2-yl)amino)-7H-pyrrolo[2,3-d]pyrimidine-6-carboxamide] |  |
| 74.6 | 33 | CN(C)C(=O)c1c(F)c2cnc(Nc3ccc(N4CCOCC4)c(F)c3)nc2n1C1CCCC1 [Compound A20, 7-cyclopentyl-5-fluoro-2-((3-fluoro-4-morpholinophenyl)amino)-N,N-dimethyl-7H-pyrrolo[2,3-d]pyrimidine-6-carboxamide] |  |
| 4860 | 2290 | CN(C)C(=O)c1c(F)c2cnc(Nc3cc(C(F)(F)F)c(N4CCNCC4)cn3)nc2n1C1CCCC1 [Compound A25, 7-cyclopentyl-5-fluoro-N,N-dimethyl-2-((5-(piperazin-1-yl)-4-(trifluoromethyl)pyridin-2-yl)amino)-7H-pyrrolo[2,3-d]pyrimidine-6-carboxamide] |  |
| 217 | 43.8 | COc1cc(Nc2ncc3c(F)c(C(=O)N(C)C)n(C4CCCC4)c3n2)ccc1N1CCN(C(C)C)CC1 [Compound A35, 7-cyclopentyl-5-fluoro-2-((4-(4-isopropylpiperazin-1-yl)-3-methoxyphenyl)amino)-N,N-dimethyl-7H-pyrrolo[2,3-d]pyrimidine-6-carboxamide] |  |
|  | 52000 | CC(C)N1CCN(c2ccc(Nc3ncc4cc(C(=O)N(C)C)n(C56CC(C5)C6)c4n3)cc2)CC1 [Compound A37, 7-(bicyclo[1.1.1]pentan-1-yl)-2-((4-(4-isopropylpiperazin-1-yl)phenyl)amino)-N,N-dimethyl-7H-pyrrolo[2,3-d]pyrimidine-6-carboxamide] |  |
| 28.2 | 12.6 | CN(C)C(=O)c1cc2cnc(Nc3ccc(N4CC5(CNC5)C4)nc3)nc2n1C12CC(C1)C2 [Compound A46, 2-((6-(2,6-diazaspiro[3.3]heptan-2-yl)pyridin-3-yl)amino)-7-(bicyclo[1.1.1]pentan-1-yl)-N,N-dimethyl-7H-pyrrolo[2,3-d]pyrimidine-6-carboxamide] |  |
| 98.6 | 51.2 | CC(C)N1CC=C(c2ccc(Nc3ncc4c(F)c(C(=O)N(C)C)n(C5CCCC5)c4n3)nc2)CC1 [Compound A21, 7-cyclopentyl-5-fluoro-2-((1′-isopropyl-1′,2′,3′,6′-tetrahydro-[3,4′-bipyridin]-6-yl)amino)-N,N-dimethyl-7H-pyrrolo[2,3-d]pyrimidine-6-carboxamide] |  |
| 10.1 | 2.45 | CN(C)C(=O)c1cc2cnc(Nc3ccc(C(=O)N4CC[C@H](N(C)C)C4)cc3)nc2n1C12CC(C1)C2 [Compound A44, (S)-7-(bicyclo[1.1.1]pentan-1-yl)-2-((4-(3-(dimethylamino)pyrrolidine-1-carbonyl)phenyl)amino)-N,N-dimethyl-7H-pyrrolo[2,3-d]pyrimidine-6-carboxamide] |  |
| 40.2 | 21.4 | CCN1CCN(Cc2ccc(Nc3ncc4cc(C(=O)N(C)C)n(C56CC(C5)C6)c4n3)nc2)CC1 [Compound A41, 7-(bicyclo[1.1.1]pentan-1-yl)-2-((5-((4-ethylpiperazin-1-yl)methyl)pyridin-2-yl)amino)-N,N-dimethyl-7H-pyrrolo[2,3-d]pyrimidine-6-carboxamide] |  |
| 12600 | 2740 | CN1CCN(c2cnc(Nc3ncc4c(F)c(C(=O)N(C)C)n(C5CCCC5)c4n3)cc2C(F)(F)F)CC1 [Compound A18, 7-cyclopentyl-5-fluoro-N,N-dimethyl-2-((5-(4-methylpiperazin-1-yl)-4-(trifluoromethyl)pyridin-2-yl)amino)-7H-pyrrolo[2,3-d]pyrimidine-6-carboxamide] |  |
| 8.04 | 3.04 | CN(C)C(=O)c1cc2cnc(Nc3ccc(N4CCNCC4)c(F)c3)nc2n1C12CC(C1)C2 [Compound A17, 7-(bicyclo[1.1.1]pentan-1-yl)-2-((3-fluoro-4-(piperazin-1-yl)phenyl)amino)-N,N-dimethyl-7H-pyrrolo[2,3-d]pyrimidine-6-carboxamide] |  |
| 81.9 | 26.6 | CN1CCN(c2ccc(Nc3ncc4c(F)c(C(=O)N(C)C)n(C5CCCC5)c4n3)cn2)CC1 [Compound A28, 7-cyclopentyl-5-fluoro-N,N-dimethyl-2-((6-(4-methylpiperazin-1-yl)pyridin-3-yl)amino)-7H-pyrrolo[2,3-d]pyrimidine-6-carboxamide] |  |
| 116 | 39.6 | CN(C)C(=O)c1c(F)c2cnc(Nc3ccc(OCCN4CCCCC4)nc3)nc2n1C1CCCC1 [Compound A27, 7-cyclopentyl-5-fluoro-N,N-dimethyl-2-((6-(2-(piperidin-1-yl)ethoxy)pyridin-3-yl)amino)-7H-pyrrolo[2,3-d]pyrimidine-6-carboxamide] |  |
| 73.3 | 29.3 | CN(C)C(=O)c1cc2cnc(Nc3ccc(N4CCC(N5CCOCC5)CC4)cc3)nc2n1C12CC(C1)C2 [Compound A45, 7-(bicyclo[1.1.1]pentan-1-yl)-N,N-dimethyl-2-((4-(4-morpholinopiperidin-1-yl)phenyl)amino)-7H-pyrrolo[2,3-d]pyrimidine-6-carboxamide] |  |

Further lines, the molecule ahead of its results:

| Structure (SMILES) | IC50 (CDK6-CYCLIND3; Table 2, read-out: CDK6 IC50) [nM] | IC50 (CDK4-CYCLIND1) [nM] | IC50 (CDK6-CYCLIND3; CDK6 IC50, Table 2) [nM] |
| --- | --- | --- | --- |
| CN(C)C(=O)c1cc2cnc(Nc3ccc(OCCN4CCCCC4)cn3)nc2n1C1CCCC1 [Compound A6, 7-cyclopentyl-N,N-dimethyl-2-((5-(2-(piperidin-1-yl)ethoxy)pyridin-2-yl)amino)-7H-pyrrolo[2,3-d]pyrimidine-6-carboxamide] | 36.4 | 15.2 |  |
| CN(C)C(=O)c1c(F)c2cnc(Nc3ccc(N4CCNCC4)cn3)nc2n1C1CCCC1 [Compound A1, 7-cyclopentyl-5-fluoro-N,N-dimethyl-2-((5-(piperazin-1-yl)pyridin-2-yl)amino)-7H-pyrrolo[2,3-d]pyrimidine-6-carboxamide] | 54.3 | 38.7 |  |
| CN(C)CCOc1ccc(Nc2ncc3c(F)c(C(=O)N(C)C)n(C4CCCC4)c3n2)cc1 [Compound A7, 7-cyclopentyl-2-((4-(2-(dimethylamino)ethoxy)phenyl)amino)-5-fluoro-N,N-dimethyl-7H-pyrrolo[2,3-d]pyrimidine-6-carboxamide] | 63 | 22.2 |  |
| CN(C)C(=O)c1cc2cnc(Nc3ccc(OCCN4CCCC4)nc3)nc2n1C1CCCC1 [Compound A8, 7-cyclopentyl-N,N-dimethyl-2-((6-(2-(pyrrolidin-1-yl)ethoxy)pyridin-3-yl)amino)-7H-pyrrolo[2,3-d]pyrimidine-6-carboxamide] | 23.6 | 4.98 |  |
| CN(C)CCOc1ccc(Nc2ncc3cc(C(=O)N(C)C)n(C45CC(C4)C5)c3n2)nc1 [Compound A15, 7-(bicyclo[1.1.1]pentan-1-yl)-2-((5-(2-(dimethylamino)ethoxy)pyridin-2-yl)amino)-N,N-dimethyl-7H-pyrrolo[2,3-d]pyrimidine-6-carboxamide] | 23.8 | 31.5 |  |
| CN(C)C(=O)c1c(F)c2cnc(Nc3ccc(N4CCN5CCC4CC5)cn3)nc2n1C1CCCC1 [Compound A10, 2-((5-(1,4-diazabicyclo[3.2.2]nonan-4-yl)pyridin-2-yl)amino)-7-cyclopentyl-5-fluoro-N,N-dimethyl-7H-pyrrolo[2,3-d]pyrimidine-6-carboxamide] | 50 | 30.4 |  |
| CN(C)C(=O)c1cc2cnc(Nc3ccc(C4=CCNCC4)cn3)nc2n1C12CC(C1)C2 [Compound A13, 7-(bicyclo[1.1.1]pentan-1-yl)-N,N-dimethyl-2-((1′,2′,3′,6′-tetrahydro-[3,4′-bipyridin]-6-yl)amino)-7H-pyrrolo[2,3-d]pyrimidine-6-carboxamide] | 8.29 | 14.7 |  |
| CN(C)C(=O)c1cc2cnc(Nc3ccc(OCCN4CCCC4)cn3)nc2n1C1CCCC1 [Compound A5, 7-cyclopentyl-N,N-dimethyl-2-((5-(2-(pyrrolidin-1-yl)ethoxy)pyridin-2-yl)amino)-7H-pyrrolo[2,3-d]pyrimidine-6-carboxamide] | 50.6 | 19.3 |  |
| CN(C)C(=O)c1cc2cnc(Nc3ccc(N4CCNCC4)cn3)nc2n1C12CC(C1)C2 [Compound A12, 7-(bicyclo[1.1.1]pentan-1-yl)-N,N-dimethyl-2-((5-(piperazin-1-yl)pyridin-2-yl)amino)-7H-pyrrolo[2,3-d]pyrimidine-6-carboxamide] | 10 | 12.4 |  |
| CN1CCN(c2ccc(Nc3ncc4c(F)c(C(=O)N(C)C)n(C5CCCC5)c4n3)nc2)CC1 [Compound A2] | 54.3 | 37.9 |  |
| CN1CCN(c2ccc(Nc3ncc4cc(C(=O)N(C)C)n(C56CC(C5)C6)c4n3)cc2)CC1 [Compound A14, 7-(bicyclo[1.1.1]pentan-1-yl)-N,N-dimethyl-2-((4-(4-methylpiperazin-1-yl)phenyl)amino)-7H-pyrrolo[2,3-d]pyrimidine-6-carboxamide] |  |  | 7.08 |
